According to ChEMBL document CHEMBL1136181, “Differentially functionalized diamines as novel ligands for the NPY2 receptor” (Bioorg Med Chem Lett, 2003):
pIC50: −log10 of the molar value.

Target: T1, Neuropeptide Y receptor type 2 (Homo sapiens, UniProt P49146)
T1 sequence (P49146 whole entry): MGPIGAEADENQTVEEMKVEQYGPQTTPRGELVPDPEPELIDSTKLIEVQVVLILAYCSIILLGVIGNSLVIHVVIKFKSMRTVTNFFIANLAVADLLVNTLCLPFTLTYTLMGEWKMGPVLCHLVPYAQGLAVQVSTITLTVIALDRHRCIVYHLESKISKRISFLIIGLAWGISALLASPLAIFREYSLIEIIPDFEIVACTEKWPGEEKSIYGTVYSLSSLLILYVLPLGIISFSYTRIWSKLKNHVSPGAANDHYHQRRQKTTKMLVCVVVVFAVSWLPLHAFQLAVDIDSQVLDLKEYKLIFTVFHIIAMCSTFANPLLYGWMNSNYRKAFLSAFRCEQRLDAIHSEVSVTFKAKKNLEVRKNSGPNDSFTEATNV
Experiment: Binding affinity against SMS-KAN cell membranes endogenously expressing Neuropeptide Y receptor type 2 using [125I]PYY as radioligand

SMILES	pIC50
CCCCc1ccccc1N(CCCN(C)C)C(=O)c1cc2ccccc2s1	5.66
CN(C)CCCN(C(=O)c1cc2ccccc2s1)c1ccccc1CCc1ccccc1	< 5.00
CN(C)CCCN(C(=O)c1cc2ccccc2s1)c1ccccc1NC(=O)c1ccccc1	< 5.00
CN(C)CCCN(C(=O)[C@@H]1C[C@H]1c1ccccc1)c1ccccc1SCc1ccccc1	5.43
CN(C)CCCN(C(=O)c1cc2ccccc2o1)c1ccccc1SCc1ccccc1	< 5.00
CC(C(=O)N(CCCN(C)C)c1ccccc1SCc1ccccc1)c1ccccc1 (stereo not drawn)	6.00
CN(C)CCCN(C(=O)c1sc2ccccc2c1Cl)c1ccccc1SCc1ccccc1	< 5.00
CN(C)CCCN(C(=O)/C=C/c1ccccc1)c1ccccc1SCc1ccccc1	5.00

Further lines, results first:

pIC50	SMILES
< 5.00	CNCCCN(C(=O)c1cc2ccccc2s1)c1ccccc1SCc1ccccc1
< 5.00	CN(C)CCN(C(=O)c1cc2ccccc2s1)c1ccccc1SCc1ccccc1
< 5.00	CN(C)CCCN(C(=O)c1cc2ccccc2s1)c1ccccc1Cc1ccccc1
< 5.00	CN(C)CCCN(C(=O)c1cc2ccccc2s1)c1ccccc1-c1ccccc1
< 5.00	CN(C)CCCCN(C(=O)c1cc2ccccc2s1)c1ccccc1SCc1ccccc1
